ChEMBL document CHEMBL4680243, “N-benzyl 4,4-disubstituted piperidines as a potent class of influenza H1N1 virus inhibitors showing a novel mechanism of hemagglutinin fusion peptide interaction” (Eur J Med Chem, 2020)
pEC50: −log10 of the molar value.

How the values were obtained:
Influenza A virus [1] = assay: Antiviral activity against Influenza A virus (A/PR 8/34 (H1N1)) infected in MDCK cells assessed as reduction in virus-induced cytopathic effect measured after 72 hrs by MTS assay; format: functional, organism-based; conditions: A/Puerto Rico/8/1934(H1N1)
[2] = Cytotoxicity against MDCK cells assessed as reduction in cell viability measured after 72 hrs by MTS assay; format: cell-based, Canis lupus familiaris; conditions: dog
Influenza A virus [3] = assay: Antiviral activity against Influenza A virus (A/PR 8/34 (H1N1)) infected in MDCK cells assessed as reduction in virus-induced cytopathic effect measured after 72 hrs by microscopic analysis; format: functional, organism-based; conditions: A/Puerto Rico/8/1934(H1N1)
[4] = Selectivity index, ratio of CC50 for MDCK cells to EC50 for antiviral activity against Influenza A virus (A/Puerto Rico/8/1934(H1N1)) infected in MDCK cells; format: toxicity, cell-based; conditions: dog, read-out: Ratio CC50/EC50
[5] = Cytotoxicity against MDCK cells assessed as change in cell morphology measured after 72 hrs by microscopic analysis; format: cell-based, Canis lupus familiaris; conditions: dog

Compound	pEC50 (Influenza A virus [1])	CC50 at 72 h [2]	pEC50 (Influenza A virus [3])	selectivity ratio [4]	MCC at 72 h [5]
COC(=O)C[C@H](NC(=O)OC(C)(C)C)C(=O)N(Cc1ccc(Cl)cc1)C1(C(=O)NCc2ccccc2)CCN(Cc2ccccc2)CC1	5.80	63 µM	5.80	≤ 10	100 µM
COC(=O)C[C@H](NC(=O)OC(C)(C)C)C(=O)N(Cc1ccc(F)cc1)C1(C(=O)NCc2ccccc2)CCN(C2CCCCC2)CC1	< 4.00	42 µM	< 4.00		73 µM
COC(=O)C[C@H](NC(=O)OC(C)(C)C)C(=O)N(CCNc1ccccc1)C1(C(=O)NCc2ccccc2)CCN(Cc2ccccc2)CC1	< 4.00	68 µM	< 4.00		14 µM
COC(=O)C[C@H](NC(=O)OC(C)(C)C)C(=O)N(Cc1ccc(F)cc1)C1(C(=O)NCc2ccccc2)CC[N+](C)(Cc2ccccc2)CC1 (stereo partly drawn)	< 4.00	55 µM	< 4.00		100 µM
CC(C)(C)NC(=O)C1(N(C(=O)[C@H](Cc2ccccc2)NC(=O)OC(C)(C)C)C2CC2)CCN(Cc2ccccc2)CC1	5.28	58 µM	5.24	≤ 10	84 µM
COC(=O)C[C@H](NC(=O)OC(C)(C)C)C(=O)N(Cc1ccc(C)cc1)C1(C(=O)NCc2ccccc2)CCN(Cc2ccccc2)CC1	< 4.00	> 100 µM	5.16		> 100 µM
COC(=O)C[C@H](NC(=O)OC(C)(C)C)C(=O)N(Cc1ccc(F)cc1)C1(C(=O)NC2CCCCC2)CCN(Cc2ccccc2)CC1	< 4.00	44 µM	< 4.00		100 µM
COC(=O)C[C@H](N)C(=O)N(Cc1ccc(F)cc1)C1(C(=O)NCc2ccccc2)CCN(Cc2ccccc2)CC1	> 6.10	54 µM	> 6.10		60 µM
CC[C@H](C)[C@H](NC(=O)OCc1ccccc1)C(=O)N(C1CC1)C1(C(=O)NCc2ccccc2)CCN(Cc2ccccc2)CC1	5.05	> 100 µM	5.29	8	> 100 µM
COC(=O)C[C@H](NC(=O)OC(C)(C)C)C(=O)N(Cc1ccccc1)C1(C(=O)NCc2ccccc2)CCN(Cc2ccccc2)CC1	5.00	> 100 µM	5.03	≤ 10	> 100 µM
COC(=O)C[C@H](NC(=O)OCc1ccccc1)C(=O)N(Cc1ccc(F)cc1)C1(C(=O)NCc2ccccc2)CCN(Cc2ccccc2)CC1	< 4.00	1.9 µM	5.57		2.6 µM
CC(C)(C)OC(=O)N[C@@H](Cc1ccccc1)C(=O)N(Cc1ccc(F)cc1)C1(C(=O)NCc2ccccc2)CCN(Cc2ccccc2)CC1	< 4.00	56 µM	< 4.00		100 µM
COC(=O)CCC(=O)N(Cc1ccc(F)cc1)C1(C(=O)NCc2ccccc2)CCN(Cc2ccccc2)CC1	4.62	40 µM	4.60		16 µM
COC(=O)C[C@H](NC(=O)OC(C)(C)C)C(=O)N(Cc1ccc(F)cc1)C1(C(=O)NCc2ccccc2)CCNCC1	< 4.05	48 µM	< 4.14		100 µM
COC(=O)C[C@H](NC(=O)OC(C)(C)C)C(=O)N(Cc1ccc(F)cc1)C1(C(=O)NCc2ccccc2)CCN(c2ccccc2)CC1	< 4.00	8.2 µM	< 4.00		20 µM
COC(=O)C[C@H](NC(=O)OC(C)(C)C)C(=O)N(Cc1ccc(F)cc1)C1(C(=O)NCc2ccccc2)CCN(Cc2cc(F)cc(F)c2)CC1	< 4.00	84 µM	< 4.00		100 µM

Compound	pEC50 (Influenza A virus [1])	CC50 at 72 h [2]	pEC50 (Influenza A virus [3])	selectivity ratio [4]	MCC at 72 h [5]
COC(=O)C[C@H](NC(=O)OC(C)(C)C)C(=O)N(Cc1ccc([N+](=O)[O-])cc1)C1(C(=O)NCc2ccccc2)CCN(Cc2ccccc2)CC1	< 4.00	> 100 µM	5.00		20 µM
CCC(C)N(C(=O)[C@H](CC(=O)OC)NC(=O)OC(C)(C)C)C1(C(=O)NCc2ccccc2)CCN(Cc2ccccc2)CC1 (stereo partly drawn)	< 4.00	53 µM	< 4.00		84 µM
C[C@H](NC(=O)OC(C)(C)C)C(=O)N(Cc1ccc(F)cc1)C1(C(=O)NCc2ccccc2)CCN(Cc2ccccc2)CC1	4.96	> 100 µM	5.00		> 100 µM
COC(=O)C[C@H](NC(=O)OC(C)(C)C)C(=O)N(C)C1(C(=O)NCc2ccccc2)CCN(Cc2ccccc2)CC1	< 4.00	25 µM	4.85		20 µM
COC(=O)C[C@H](NC(=O)OC(C)(C)C)C(=O)N(Cc1ccc(F)cc1)C1(C(=O)NCc2ccccc2)CCN(Cc2cccc(F)c2)CC1	5.80	73 µM	5.80		84 µM
CC[C@H](C)[C@H](NC(=O)OC(C)(C)C)C(=O)N(Cc1ccccc1)C1(C(=O)NCc2ccccc2)CCN(Cc2ccccc2)CC1	< 4.00	> 100 µM	< 4.00		> 100 µM
COC(=O)C[C@H](NC(=O)OC(C)(C)C)C(=O)N(Cc1ccc(F)cc1)C1(C(=O)NC(C)(C)C)CCN(Cc2ccccc2)CC1	< 4.00	50 µM	< 4.00		80 µM
COC(=O)C[C@H](NC(=O)OC(C)(C)C)C(=O)N(Cc1ccc(F)c(F)c1)C1(C(=O)NCc2ccccc2)CCN(Cc2ccccc2)CC1	< 4.00	52 µM	< 4.00		20 µM
COC(=O)C[C@H](NC(=O)OC(C)(C)C)C(=O)N(Cc1ccc(F)cc1)C1(C(=O)NCS(=O)(=O)c2ccc(C)cc2)CCN(Cc2ccccc2)CC1	< 4.00	6.4 µM	< 4.00		4 µM
COC(=O)C[C@H](NC(=O)OC(C)(C)C)C(=O)NC1(C(=O)NCc2ccccc2)CCN(Cc2ccccc2)CC1	< 4.00	85 µM	< 4.00		100 µM
COC(=O)C[C@H](NC(=O)OC(C)(C)C)C(=O)N(Cc1ccc(F)cc1)C1(C(=O)NCc2ccccc2)CCN(CCc2ccccc2)CC1	< 4.00	41 µM	< 4.00		100 µM
COC(=O)C[C@H](NC(=O)OC(C)(C)C)C(=O)N(Cc1ccc(F)cc1)C1(C(=O)NCc2ccccc2)CCN(C)CC1	4.44	9.5 µM	4.44		17 µM
COC(=O)C[C@H](NC(=O)OC(C)(C)C)C(=O)N(Cc1ccc(F)cc1)C(C)(C)C(=O)NCc1ccccc1	< 4.00	10 µM	< 4.00		20 µM
COC(=O)C[C@H](NC(=O)OC(C)(C)C)C(=O)N(C1CC1)C1(C(=O)NCc2ccccc2)CCN(Cc2ccccc2)CC1	< 4.00	56 µM	< 4.00		84 µM
COC(=O)C[C@H](NC(=O)OC(C)(C)C)C(=O)N(Cc1ccc(C(F)(F)F)cc1)C1(C(=O)NCc2ccccc2)CCN(Cc2ccccc2)CC1	< 4.00	54 µM	< 4.00		84 µM
